Data on 65 compounds can be found in a melting point compilation (Tetko et al.; mined from patent text by program, amines drawn as free bases though some values may be those of a salt).

The term melting point denotes the temperature, or range, at which the solid turns liquid. `C[C@@H](n1cnc2cccc(F)c2c1=O)[C@](O)(Cn1cncn1)c1ccc(F)cc1F`: the melting point was in the range of 94 to 122 °C.
The same measure for `N#CCCN(CCC#N)CCC#N`: 59 to 61 °C.
The same measure for `Nc1ccc(Nc2ncnc3cc(-c4ccccc4)sc23)cc1`: 210 to 211 °C; for `COc1ccccc1N1CCN(CCCCCn2c(=O)[nH]c3cscc3c2=O)CC1`: 148 to 153 °C; for `CCCCc1nc2cc(F)ccc2n1Cc1ccc(C(=O)O)cc1`: 202 to 204 °C.
In turn, `CCN(CC)CC1CCCCN1CCNC(=O)N1c2ccccc2NC(=O)c2csc(C)c21` (stereo not given) gave a melting point of 132 to 133 °C.
On to `N=C(NS(=O)(=O)c1ccc(F)cc1)N1CC(c2ccccc2)C(c2ccc(Cl)cc2)=N1` (stereo not given), for which the melting point was 214 to 215 °C.
For `COc1cc2cc(C(=O)O)[nH]c2c2c1OCCC2=O` the value was 312 °C; for `CN1Sc2cc3c(cc2CC1=O)CCCC3`, 202 to 203 °C; for `CCOC(=O)c1c(C)[nH]c2ccc(OCC3CO3)cc12` (stereo not given), 93 to 94 °C.
Compound `CC(C)(C#N)Cc1cccc(CC(C)(C)C#N)c1` showed a melting point of 58 to 63 °C.
The same measure for `O=Cc1cc2cc(O)c(Cl)c(Cl)c2s1`: 197 to 198 °C; for `COC(C)=CC(=O)NC1(C)CCCCC1`: 105 °C.
The same measure for `COC(=O)CC1CCNC1` (stereo not given): 68.5 to 69.5 °C.
For `O=C(c1ccc(F)cc1)C1CCN(CCCn2c(=O)[nH]c3cc(Cl)ccc32)CC1` the value was 164 °C.
The compound `CCc1cccc(C)c1NCN1CCOC1=O` registered a melting point of 56 to 57.5 °C.
The same measure for `COc1ccc(C#CC(=Nc2ccc(OC)cc2)N2CCN(Cc3ccc(C)cc3)CC2)cc1`: 107 °C; for `CC(C)(C(=O)O)c1cn2nc(NCCCN3CCC(OC(c4ccccc4)c4ccccc4)CC3)ccc2n1`: 205 to 206 °C; for `CCOc1cc(C(=CC#N)c2ccc3c(c2)nnn3C)ccc1OC`: 180 to 182 °C.
The same measure for `CC(C)CN1N=Cc2cc(S(N)(=O)=O)sc2S1(=O)=O`: 130 to 132 °C; for `OCC1Cc2c(F)cccc2OC1CO` (stereo not given): 99 to 101 °C.
For `O=C(O)C(Cc1ccccc1)Nc1cc(-c2ccc(OCc3ccccc3)nc2)ncn1` (stereo not given) the value was 130 to 133 °C; for `CCOC(=O)c1cnn(Cc2ccccc2)c1NC(=O)Nc1ccccc1`, 178 to 179 °C.
For the compound `O=C(C1=C(c2ccccc2)c2ccccc2S1=O)c1ccc(O)cc1` (stereo not given), the melting point lay in the range of 140 to 145 °C.
With `Nc1nc2ccc(CCN3CCC(Cc4ccccc4)CC3)cc2s1`, the melting point lay within 152 to 153 °C.
Regarding `Cc1ccc(-c2csc(C(=O)O)n2)cc1`, the melting point fell in the range of 112 to 114 °C.
Compound `Clc1ccc(C2(CBr)OCC(c3ccc(Cl)cc3Cl)O2)cc1` (stereo not given) had a melting point of 82.7 °C.
As for `Cn1ccc2cc(Nc3cnccc3N)ccc21`, the melting point was 167 to 169 °C.
For `Nc1ccc(C(=S)OC2CCCCC2)c(Cl)c1` the value was 97 to 100 °C.
The same measure for `COc1ccc2c(c1)c1c3c(c(-c4ccccc4Cl)cc1n2C(C)=O)C(=O)NC3=O`: 277 to 280 °C; for `Oc1cc(O)c2c(-c3cc(F)cc(F)c3)coc2c1`: 149 to 151 °C; for `CCC(CC)n1nnc2c(Nc3c(Br)cc(OC)cc3OC)nc(C)cc21`: 166 to 167 °C.
The same measure for `O=c1oc2ccccc2cc1S(=O)(=O)Cc1ccc(Cl)cc1`: 195 to 196 °C; for `Oc1ccc(C2CC(c3ccccc3)=NN2c2ccccc2)cc1` (stereo not given): 144 to 145 °C; for `COc1cc2c(c(Cl)c1Cl)SC(c1ccccc1)C2=O` (stereo not given): 228 to 229 °C.
Compound `CC(C)(Oc1ccc(CN(Cc2ccccc2)c2ccc(Cl)cc2)cc1)C(=O)O` yielded a melting point of 65 to 67 °C.
The same measure for `COc1ccc(N2C(=O)C(=O)N(c3ccccc3)C2=O)cc1`: 129 to 131 °C; for `Cc1c(-c2ccccn2)[nH]c2ncnc(Nc3cccc(Cl)c3)c12`: 171 to 172 °C; for `CSc1ccc(-c2csc3ccc(-c4nnc(C)o4)cc23)cc1`: 198 to 199 °C.
For `CCNCC1CCN(c2c(F)cc3c(=O)c(C(=O)O)cn(-c4ccc(F)cc4)c3c2F)C1` (stereo not given) the value was 249 to 251 °C; for `COc1ccc(C(=O)Nc2ccc(F)c(F)c2)cc1Nc1cccc(C(F)(F)F)c1`, 166 to 169 °C; for `COc1ccc2c(=O)c(-c3ccccc3)c(SCc3ccccn3)oc2c1`, 168 to 169 °C.
The same measure for `O=C(C(c1ccccc1)n1cnc2[nH]ncc2c1=S)N1CCN(c2ccccn2)CC1` (stereo not given): 242 to 246 °C.
Compound `O=C1NC(C(Cl)(Cl)Cl)Nc2ccc([N+](=O)[O-])cc21` (stereo not given) registered a melting point of 278 to 280 °C.
Regarding `O=C1CC2(C(=O)N1)C(=O)N(Cc1ccc(Br)cc1F)c1ccccc12` (stereo not given), the melting point fell in the range of 218 to 220 °C.
For `O=[N+]([O-])c1ccc(OCc2ccc(Cl)nc2)cc1F` the value was 174 °C.
For `CC(CCCC(C)(C)OC1CCCCO1)C1CCC2C3CC=C4CC(O)CC(O)C4(C)C3CCC12C` (stereo not given), the melting point was in the range of 130 to 132 °C.
The same measure for `CCOC(=O)c1cnn(C)c1C(=O)Nc1ccn2nc(-c3cccc(F)c3)nc2c1`: 246 to 249 °C.
For `CNc1nccc(Oc2ccc(NC(=O)Nc3ccc(CN4CCN(C(C)(C)C)CC4)c(C(F)(F)F)c3)cc2)n1` the value was 257 to 258 °C; for `CC(C)c1cccc(C(C)C)c1NC(=O)[C@H](CCc1ccccc1)NC(=O)OC(C)(C)C`, 193 to 197 °C.
As for `CCOC(=O)C(NS(=O)(=O)c1ccc(C)cc1)C1CCOC1` (stereo not given), the melting point was in the range of 104 to 105 °C.
For `CSc1ccc(C(=O)CC(=O)C(F)F)cc1` the value was 68 to 70 °C; for `CCCCC(=O)N(Cc1ccc(-c2ccccc2-c2nc(=O)s[nH]2)cc1)c1sccc1C(=O)O`, 148 to 149 °C; for `CCN(CC)C(=O)c1ccc(C)c(-c2nc(SC)nc3c2CNC(=O)N3c2c(F)cccc2F)c1`, 127 to 129 °C.
Compound `CC(C)OP(=O)(OCN1C(=O)c2c(C(C)C)cc(OCC(=O)OCc3ccccc3)cc2S1(=O)=O)OC(C)C` came in with a melting point of 93 to 94 °C.
For `CN(C)CCOc1ccc2c(c1)[nH]c(=O)c1c3ccccc3oc21` the value was 213 to 217 °C; for `O=C(O)c1ccc(NCc2ccc(F)cc2)cn1`, 197 to 200 °C.
The same measure for `C/C(=C(\C#N)C(N)=S)N1CCCOCC1`: 151 to 156 °C; for `CCn1cc2c(n1)c(=O)[nH]c1ccccc12`: > 250 °C; for `CC(C(=O)Nc1ccc(-n2nc(C(F)(F)F)cc2C(F)(F)F)cc1)c1ccc(C(=O)c2cccs2)cc1` (stereo not given): < 80 °C.
For `O=Cc1cc(Br)ccc1N1CC=CC1` the value was 88.2 to 89.2 °C; for `CCOC(=O)c1cn(C23CC(C2)C3)c2cc(Cl)c(F)cc2c1=O`, 223 to 225 °C; for `O=c1[nH]c(=O)n(CCCCBr)c2ccccc12`, 152 to 153 °C.
As for `Cc1noc(-c2ccccc2)c1/C=C/C(=O)O`, the melting point is 173 to 174 °C.
With `O=c1[nH]c2sc3ccc(I)cc3c2[nH]c1=O`, the melting point is > 300 °C.
